The test system of assay [1] is MCF7. Briefly: In vitro antiproliferative activity against human MCF7 cells assessed as decrease cell viability after 24 hrs by MTT assay. The format is functional, cell-based. Conditions: for IC50: MCF7, 24 h. In general terms: Formazan colour is commonly taken as a measure of viable cells.
Assay [2] deals with MDA-MB-231. Briefly: In vitro antiproliferative activity against human MDA-MB-231 cells assessed as decrease in cell vaibility after 24 hrs by MTT assay. The format is functional, cell-based. Conditions: for IC50: MDA-MB-231, 24 h.
Assay [3] has as its system K562. Briefly: In vitro antiproliferative activity against human K562 cells assessed as decrease in cell viability after 24 hrs by MTT assay. The format is functional, cell-based. Conditions: for IC50: K562, 24 h.
A short description of assay [4]: (§1) In vitro antiproliferative activity against human BV173 cells assessed as decrease in cell viability after 24 hrs by MTT assay. Conditions: BV-173, 24 h. The format is functional, cell-based.
Assay [5] concerns BV-173. Described as §1. The format is functional, cell-based.
For assay [6], the system named is HL-60. Briefly: In vitro antiproliferative activity against human HL60 cells assessed as decrease in cell viability after 24 hrs by MTT assay. The format is functional, cell-based. Conditions: for IC50: HL-60, 24 h, read-out: IC50.
In assay [7] the test system is CCRF-CEM. Description: In vitro antiproliferative activity against human CCRF-CEM cells assessed as decrease in cell viability after 24 hrs by MTT assay. The format is functional, cell-based.
Assay [8] relates to MCF7. Description: Cytostatic activity against human MCF7 cells assessed as decrease in [3H]thymidine incorporation into DNA after 24 hrs by liquid scintillation counting analysis. The format is functional, cell-based.
Assay [9] concerns MDA-MB-231. Briefly: Cytostatic activity against human MDA-MB-231 cells assessed as decrease in [3H]thymidine incorporation into DNA after 24 hrs by liquid scintillation counting analysis. The format is functional, cell-based. (Incorporation of labelled thymidine or its analogues reports DNA synthesis.)
The target of assay [10] is T1, Tyrosine-protein kinase ABL1 (Homo sapiens, UniProt P00519). Briefly: Inhibition of recombinant Abl kinase (unknown origin) expressed in Sf9 cells using GGEAIYAAPFKK as substrate in presence of [gamma33P]ATP.
In assay [11] the target is T1, Tyrosine-protein kinase ABL1. Briefly: Inhibition of recombinant Abl kinase (unknown origin) expressed in Sf9 cells assessed as residual enzyme activity using GGEAIYAAPFKK as substrate at 10 uM in presence of [gamma33P]ATP.
Assay [12] addresses Cyclin-dependent kinase 2/cyclin E1 (Homo sapiens, UniProt P24941). Description: Inhibition of CDK2/cyclin E (unknown origin) expressed in Sf9 cells using histone H1 as substrate in presence of [gamma33P]ATP.
Assay [13] has as its target Casein kinase II subunit alpha (Homo sapiens, UniProt P68400). Briefly: Inhibition of CK2alpha1 (unknown origin) using casein as substrate in presence of [gamma33P]ATP.

T1 sequence (P00519 whole entry): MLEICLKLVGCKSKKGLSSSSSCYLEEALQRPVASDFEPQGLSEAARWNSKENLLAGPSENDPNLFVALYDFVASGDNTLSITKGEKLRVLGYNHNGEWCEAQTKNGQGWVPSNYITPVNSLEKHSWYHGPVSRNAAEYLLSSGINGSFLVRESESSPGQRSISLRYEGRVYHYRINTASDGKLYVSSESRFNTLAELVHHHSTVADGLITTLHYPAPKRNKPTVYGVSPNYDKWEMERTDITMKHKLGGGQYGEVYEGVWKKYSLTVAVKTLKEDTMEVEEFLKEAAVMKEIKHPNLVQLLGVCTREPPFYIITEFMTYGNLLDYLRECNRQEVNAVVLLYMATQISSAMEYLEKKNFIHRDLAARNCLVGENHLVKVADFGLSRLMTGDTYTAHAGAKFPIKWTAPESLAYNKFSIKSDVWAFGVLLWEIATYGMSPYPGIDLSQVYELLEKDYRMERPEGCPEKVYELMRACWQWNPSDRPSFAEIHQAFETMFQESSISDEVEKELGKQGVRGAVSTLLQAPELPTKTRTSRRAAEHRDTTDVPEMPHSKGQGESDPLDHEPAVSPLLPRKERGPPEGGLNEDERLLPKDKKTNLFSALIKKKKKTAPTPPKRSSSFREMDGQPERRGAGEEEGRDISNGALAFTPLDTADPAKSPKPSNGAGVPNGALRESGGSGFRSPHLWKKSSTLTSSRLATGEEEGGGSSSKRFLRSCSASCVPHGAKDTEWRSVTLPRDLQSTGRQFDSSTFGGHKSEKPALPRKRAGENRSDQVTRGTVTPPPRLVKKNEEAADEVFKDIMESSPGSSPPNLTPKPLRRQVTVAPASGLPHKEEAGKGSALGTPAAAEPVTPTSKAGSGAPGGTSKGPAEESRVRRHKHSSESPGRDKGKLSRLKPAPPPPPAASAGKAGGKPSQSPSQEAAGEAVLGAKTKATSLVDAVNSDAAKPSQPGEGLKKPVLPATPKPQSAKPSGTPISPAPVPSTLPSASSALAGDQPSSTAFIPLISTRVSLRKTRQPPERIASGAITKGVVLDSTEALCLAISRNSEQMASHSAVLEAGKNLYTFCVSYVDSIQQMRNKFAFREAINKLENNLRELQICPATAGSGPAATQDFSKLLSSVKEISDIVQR
Chain of Casein kinase II subunit alpha (P68400 whole entry): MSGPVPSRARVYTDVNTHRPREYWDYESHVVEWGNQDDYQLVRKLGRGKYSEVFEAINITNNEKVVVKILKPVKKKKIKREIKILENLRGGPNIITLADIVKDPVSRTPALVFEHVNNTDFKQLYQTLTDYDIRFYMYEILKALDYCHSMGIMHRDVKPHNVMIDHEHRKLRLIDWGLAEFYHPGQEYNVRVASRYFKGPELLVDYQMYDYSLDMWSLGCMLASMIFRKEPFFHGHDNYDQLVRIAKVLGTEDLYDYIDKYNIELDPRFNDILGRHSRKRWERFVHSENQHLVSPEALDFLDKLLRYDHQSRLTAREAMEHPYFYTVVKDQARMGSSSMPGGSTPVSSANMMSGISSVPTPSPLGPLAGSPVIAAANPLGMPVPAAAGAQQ

On to `Cc1nn(C)c2nnc(Nc3ccc(S(=O)(=O)NC(CO)C(C)C)cc3)nc12` (configuration not stated), for which the inhibition result in [1], in [2], in assay [3], in assay [5], in assay [6] and in assay [7] was “Dose-dependent effect” each time. Besides, the inhibition entry in [8] and in assay [9] was “Dose-dependent effect” each time. Besides, the half-inhibitory concentration (IC50) (commonly the concentration that inhibits the measured activity by half) in [1] is more than 200 µM; in [2], more than 200 µM; in assay [3], more than 200 µM; in [4], 58 µM; in assay [6] it was 40 µM; in assay [7], 54 µM. Further, the IC50 was more than 200 µM in assay [8]; more than 200 µM in [9]; more than 50 µM in assay [10]; more than 50 µM in assay [12]; more than 50 µM in assay [13]. For the same molecule, the Activity in assay [11] was 80%.

Take `Cc1nn(C)c2nnc(Nc3ccc(S(=O)(=O)NCCO)cc3)nc12`: the inhibition entry in [1], in assay [2], in assay [3], in assay [5], in [6] and in assay [7] was “Dose-dependent effect” throughout. In addition, the inhibition result in [8] and in [9] was “Dose-dependent effect” throughout. In addition, the IC50 was more than 200 µM in assay [1]; more than 200 µM in [2]; 100 µM in assay [3]; 41 µM in assay [4]; 42 µM in assay [6]; 49 µM in assay [7]. Further, the half-maximal inhibitory concentration (IC50) in assay [8] is more than 200 µM; in [9], more than 200 µM; in assay [10], 39 µM; in assay [12] it was more than 50 µM; in assay [13] it was more than 50 µM.

Consider `Cc1nn(C)c2nnc(Nc3ccc(S(=O)(=O)NCCN4CCOCC4)cc3)nc12`, for which the inhibition result in assay [1], in assay [2], in assay [3], in assay [5], in assay [6] and in [7] was “Dose-dependent effect” in each case. For the same molecule, the inhibition entry in assay [8] and in assay [9] was “Dose-dependent effect” each time. Further, the IC50 in assay [1] turned out to be 146 µM; in assay [2] it was 125 µM; in assay [3], 96 µM; in assay [4], 39 µM; in assay [6], 41 µM; in assay [7], 64 µM. Also, the IC50 in assay [8] is 99 µM; in [9] it was 120 µM; in [10] it was 20 µM; in [12], more than 50 µM; in assay [13], more than 50 µM.

Turning to `O=C(O)c1ccc2c(c1)nc(Nc1cccc(Cl)c1)c1ccncc12` [SILMITASERTIB], the IC50 in assay [12] worked out at 1.8 µM.

Consider `O=C(O)CCCc1ccc(N(CCCl)CCCl)cc1` [CHLORAMBUCIL], for which the IC50 was 97 µM in assay [1]; 93 µM in [2]; 84 µM in assay [3]; 34 µM in assay [4]; 38 µM in assay [6]; 21 µM in assay [7]. Also, the IC50 in assay [8] was found to be 56 µM; in assay [9] it was 49 µM.

(Values after ChEMBL document CHEMBL3232722, “Synthesis and kinase inhibitory activity of new sulfonamide derivatives of pyrazolo[4,3-e][1,2,4]triazines” (Eur J Med Chem, 2014).)
